Experimental data reported in US6200762A, “Photon reducing agents and compositions for fluorescence assays” (Aurora Biosciences Corporation, priority 1998, dated 2001).
Structures can show the parent of a compound that is named as a salt.

Experiments:
[1] = pH 7.15
[2] = Absorption maxima of dyes; type: physicochemical; conditions: for Absorption maximum: main value
[3] = Effect of 50% methanol on coumarin fluorescence and phenol red absorbance (dye stacking); type: physicochemical
Procedure: To further investigate the ability of a photon reducing agent to reduce fluorescence of a solution, fluorescence of a dye in the presence of a photon reducing agent was monitored in the presence and absence of methanol.
[…] A 10 μM solution of 6-chloro-7-hydroxy coumarin-3-carboxylate was prepared in 39 mM phosphate buffer pH 7.5 and in a 1:1 mixture of same phosphate buffer and methanol. 1% (vol/vol) of a 100 mM aqueous Phenol Red stock solution was added to the solutions.
The presence of methanol increased fluorescence compared to an all aqueous buffer.

[4] = Reduction of front face fluorescence of a coumarin solution by 1 mM phenol red; conditions: 0.5 μM coumarin, phosphate buffer pH 7.5 / 50% methanol
Procedure: To investigate the ability of a photon reducing agent to reduce fluorescence of a solution, emission of a fluorophore from a sample was monitored in the presence and absence of a photon reducing agent.
Fluorescence from a solution of a blue fluorescent dye, 6-chloro-7-hydroxy coumarin 3-carboxylate, was determined in the presence and absence of a 1 mM phenol red as the photon reducing agent. A solution of 0.5 μM 6-chloro-7-hydroxy coumarin-3-carboxylate in solvent containing 50% (vol/vol) aqueous 39 mM phosphate buffer pH 7.5 and 50% (vol/vol) methanol was prepared. After taking a front face fluorescence spectrum of this solution on a Spex Fluorolog 2, 1% (vol/vol) of a 100 mM aqueous Phenol Red stock solution was added and another spectrum taken. Front face fluorescence refers to exciting the sample at a right angle to the sample surface and collecting emitted light (for example, from the excited region or emission region) at 12.5 degrees from such angle of excitation.

[5] = Reduction of coumarin fluorescence as a function of path length; conditions: 10 μM coumarin + 1 mM phenol red, capillary
Procedure: To further investigate the ability of photon reducing agents to reduce fluorescence emitted from a solution, fluorescence emitted from a solution containing a fluorophore in the presence of a photon reducing agent was monitored as a function sample thickness.
A photon reducing agent, phenol red, was tested with a fluorophore, coumarin, as a function of sample thickness (path length). The experiment was conducted using a microscope equipped with epifluorescence. The liquid samples were drawn into low fluorescence capillary tubes of fixed path length (Vitro Dynamics, Rockaway N.J.) as indicated in the graphs. The following samples were evaluated:
1) 10 μM coumarin (diamonds)
2) 10 μM coumarin+1 mM phenol red (squares)
3) 10 μM coumarin+5% (vol/vol) Schilling Red (triangles).
The samples were excited using a 405/20 filter via a 425 dichroic reflector through a 20× objective (Zeiss 20×Fluar). Emitted light was filtered through a 460/50 filter and detected by an intensified CCD camera (Stanford Photonics, Menlo Park, Calif.). The detector output was converted to a 512×512 pixel eight-bit digital image. The data reflect the average intensity within a 20×20 pixel area within the capillary. The background intensity of the field was subtracted from all values.

[6] = Reduction of solution fluorescence using non-dye quenchers and particulates; conditions: 10 μM coumarin, pH 7.5

[Cl][Ni][Cl] [nickel (II) salts, nickel (II) chloride]
concentration at which coumarin fluorescence can be reduced [1]: low millimolar range

O=S1(=O)OC(c2ccc(O)cc2)(c2ccc(O)cc2)c2ccccc21 [Phenol Red]
Absorption maximum [2]: 557 nm
Absorption maximum (second value, in parentheses) ([2]; value in parentheses): 423 nm
decrease of absorbance by 50% methanol buffer ([3]; at the emission wavelength of the coumarin): about 20%
reduction of front face fluorescence [4]: 70 fold
attenuation of coumarin fluorescence [5]: significantly attenuated

Cc1cc(-c2ccc(/N=N/c3c(S(=O)(=O)O)cc4cc(S(=O)(=O)O)cc(N)c4c3O)c(C)c2)ccc1/N=N/c1c(S(=O)(=O)O)cc2cc(S(=O)(=O)O)cc(N)c2c1O [Trypan Blue]
Absorption maximum [2]: 607 nm

NCCN(CCN)CCN [tris(2-aminoethyl)amine]
concentration typically required (collisional quenchers) [6]: higher than 100 mM

O=C(O)c1nn(-c2ccc(S(=O)(=O)O)cc2)c(O)c1N=Nc1ccc(S(=O)(=O)O)cc1 [Tartrazine]
Absorption maximum [2]: 425 nm

CC(=O)Nc1ccc(N=Nc2c(N)ccc3cc(S(=O)(=O)[O-])cc(O)c23)c(S(=O)(=O)[O-])c1.[Na+].[Na+] [Acid Red 37]
Absorption maximum [2]: 513 nm

O=C(O)c1cc2cc(Cl)c(O)cc2oc1=O [6-chloro-7-hydroxy coumarin-3-carboxylate]
increase of fluorescence by 50% methanol buffer ([3]; in the absence of a photon reducing agent): about 30%
